In patent US20080113907A1, “Uses Of Galectin-2” (Charite-Universitat-Smedizin Berlin, priority 2004, published 2008):
Where a SMILES comes first, the peptide text is derived from it. The star is where a group is joined. Cbz = O=C(OCc1ccccc1)*; CH2F = FC*

Key:
PBT [1] = assay: Extent of apoptosis and necrosis (annexin-V, PI, DAPI staining); assay type: cell-based, human; settings: for effect on galectin-2 induced T cell apoptosis / effect on galectin-7 induced cell death / effect on galectin-1 induced cell death: caspase inhibitor 50 μM; for effect on galectin-2 induced apoptosis: 50 mM
Description: Apoptosis was determined by monitoring fragmentation of nuclear DNA and access of annexin V to c ell surface phosphatidylserine (PS). To detect fragmentation of nuclear DNA, T cells were cultured in the presence and absence of the respective galectins, with or without blocking antibodies or further activation for 48 h. Thereafter, cells were fixed in 0.2 ml of 37% formaldehyde for 10 min at room temperature. The cells were then treated with 1 ml PBS containing 0.2% Nonidet P-40 (Sigma-Aldrich) for 2 min at room temperature and then rinsed once in PBS. The apoptotic cells were detected by staining of nuclear DNA with 4,6-diamino-2-phenylindole (DAPI) (Calbiochem). DAPI was added at a concentration of 0.2 ng/ml of PBS and cells were incubated at room temperature for 20 min in this solution. Cells were rinsed twice in PBS and the coverslips were maintained cell side down on a microscope slide and analyzed using a Zeiss Axiovert 135M microscope (Carl Zeiss, Oberkochen, Germany). To detect early phases of apoptosis, access to PS was measured. Cells were cultured as described, harvested at the respective time points, stained with FITC-labeled annexin-V and PI and analyzed by flow cytometry using the CellQuest software program (BD Pharmingen). A minimum of 15,000 cells was monitored in each case.

[2] = test system: dextran sodium sulfate induced colitis; assay: Prevention of DSS induced acute colitis, disease activity index (DAI); assay type: in vivo, Balb/c mice; settings: 2 mg/kg i.p.; 10 days after induction; control 6.5 ± 0.3
Description: Colitis was induced in 8- to 10-week-old, female, Balb/c mice (Jackson Laboratories, Bar Harbor, Me.) by adding 5% DSS (Sigma Chemical Co., St. Louis, Mo.) (Dextran Sodiumsulfate (DSS) to their drinking water and allowing them to drink ad libitum. Groups of mice were treated either with 1 mg/kg BW (body weight) galectin-2 intraperitoneally or PBS 2 h before DSS administration. Mice were weighed and inspected for diarrhea and rectal bleeding. Seven days after induction of colitis by DSS, mice were killed, their entire colon was resected, and its length was measured and weighed. The disease activity index (DAI; i.e., the combined score of weight loss and bleeding) was determined according to a standard scoring system.
The disease activity index: Loss in bodyweight: 0=no loss; 1=5% to 10%; 2=10% to 15%; 3=15% to 20%; 4 ? 20%.
Hemoccult: 0=no blood; 2=positive; 4=gross blood.
In this experiment the DAI ranges from 0 to 8. The higher the DAI score the more severely the animal had been affected by colitis.
Colitis was induced in 8- to 10-week-old, female, Balb/c mice (Jackson Laboratories, Bar Harbor, Me.) by adding 5% DSS (Sigma Chemical Co., St. Louis, Mo.) (Dextran Sodiumsulfate (DSS) to their drinking water and allowing them to drink ad libitum. Groups of respectively 10 mice were treated either with Galectin-2 subcutaneously (s.c.) or intraperitoneally (i.p.) 2 h before DSS administration. In one trial with 10 mice the doses of Galectin-2 was doubled (administered i.p.) and compared to the treatment of 10 mice with Tacrolimus (FK506) (administered i.p.) in equal concentrations. In parallel a group of 10 mice was treated with 0.9% NaCl instead of Galectin-2 as control. Mice were weighed and inspected for diarrhea and rectal bleeding. 10 days after induction of colitis by DSS, mice were killed, their entire colon was resected, and its length was measured and weighed. The disease activity index (DAI; i.e., the combined score of weight loss and bleeding) was determined according to a standard scoring system.
The disease activity index: Loss in body weight: 0=no loss; 1=5% to 10%; 2=10% to 15%; 3=15% to 20%; 4 ? 20%.

T cells = assay: Binding of biotinylated Gal-2 to T lymphocytes (flow cytometry); set-up: species or system human; settings: 50 mM
Description: To measure Gal-2 binding to T lymphocytes, aliquots of cell suspensions were kept as controls or stimulated for 1, 6, 12, 24, 48, and 72 h with anti-CD3 mAb or PMA and PHA and incubated in the presence of 5 μg/ml biotin-labeled Gal-2. Cells were then harvested, washed and stained with anti-CD3-FITC mAb and APC-labeled streptavidin (Biosource) followed by flow cytofluorometric analysis. Cells cultured in the absence of biotin-labeled Gal-2 and stained with FITC-labeled mouse IgG (BD Pharmingen) or APC-labeled streptavidin served as isotype controls. Each analysis was performed on at least 20,000 events.

PBT [3] = assay: Analysis of T cell cycling (DNA content, cyclin B1, cell cycle regulators); assay type: cell-based, human; settings: anti-CD3 activated PBT; dropped from 8% (galectin-1) and 7% (galectin-7)
Description: For immunoblotting cells were washed in PBS, and lysed in cell lysis buffer (1% Triton-X, 0.5% NP-40, 0.1% SDS, 0.5% sodium deoxycholate, 5 mM EDTA, 50 mM and 50 mM protease- and phosphatase-inhibitor cocktail 2, 1 mM PMSF, 100 μg/ml trypsin-chymotrypsin inhibitor, 100 μg/ml chymostatin in PBS). The concentration of proteins in each lysate was measured using the Bio-Rad protein assay (Bio-Rad Laboratories, Hercules, Calif.). Equivalent amounts of protein (10 μg) were fractionated on a 10-20% Tris-glycine gel and electrotransferred to a nitrocellulose membrane (Novex, San Diego, Calif.). Membranes were blocked with 5% milk in 0.1% Tween 20-PBS (Fisher Scientific, Hanover Park, Ill.), followed by incubation for 60 m in at room temperature with the indicated primary antibody. The membranes were washed six times with 0.1% Tween 20-PBS and then incubated for 1 h with the appropriate horseradish peroxidase-conjugated secondary antibody (Santa Cruz Biotechnology), washed, and incubated with the chemiluminescent substrate (Perkin-Elmer, Carlsbad, Calif.) for 5 minutes. The membranes were then exposed to film (Amersham, Arlington Heights, Ill.).
Flow cytometry was performed after staining for DNA content, and cyclin B1, essentially as previously described (21). Briefly, cells were washed twice with PBS, adjusted to 1×10^6 cells/sample and fixed in 90% Methanol at −20° C. After fixation, cells were washed twice with PBS, incubated for 45 min at 4° C. with a cyclin B1-FITC conjugated monoclonal antibody. After the final wash, cells were resupended in PBS and 5 μl of RNase (0.6 μg/ml, 30-60 Kunitz Units, Sigma), incubated at 37° C. for 15 min and the chilled on ice. One hundred and twenty five microliters of PI (200 μg/ml) were added prior to analysis by flow cytometry. Each analysis was performed on at least 25.000 events.

T cells (PBT, LPT) = assay: Adhesion assay to collagen type I and fibronectin; assay type: cell-based, human; settings: PBT
Description: 96 well flat-bottom plates were precoated overnight at 4° C. with 12 μg/well fibronectin (Chemicon) in DPBS, 40 μg/well collagen type I (Sigma-Aldrich) in 0.1 M acetic acid, or 3% BSA (Sigma-Aldrich) in DPBS as a control and then washed three times with DPBS. Freshly isolated T cells were fluorescently-labelled with 5 μM calcein-AM (Molecular Probes, Eugene, Oreg.) for 30 min at 37° C. in 5% CO2 at 5×10^6 cells/ml in RPMI. The cells were then washed three times with RPMI containing 5% FCS. Calcein-labelled T cells were resuspended in RPMI and 5×10^5 T cells/well were added to 96-well plates containing purified ECM components or BSA for the indicated times. Saturating concentrations of integrin-blocking mAbs (predetermined by flow cytometry) were preincubated with T cells for 30 min at 37° C. before adding T cells to the wells for the adhesion assay. Nonadherent cells were removed by a standardized washing technique that was developed to minimize background binding, which includes both an orbital and a rocking motion repeated three times with RPMI. Adhesion was quantified with a multiwell fluorescent spectrophotometer (Tecan, Groedig, Austria). For each experimental group the results were expressed as the mean percentage±SD of bound T cells from triplicate wells.

Molecule: C=CC[C@@H]1/C=C(\C)C[C@H](C)C[C@H](OC)[C@H]2O[C@@](O)(C(=O)C(=O)N3CCCC[C@H]3C(=O)O[C@H](/C(C)=C/[C@@H]3CC[C@@H](O)[C@H](OC)C3)[C@H](C)[C@@H](O)CC1=O)[C@H](C)C[C@@H]2OC [Tacrolimus, reference compound]
- apoptosis and necrosis of stimulated and unstimulated T cells (PBT [1]; 0, 50, 100 μg/ml, 24 h, with or without anti-CD3): makes no distinction between stimulated and unstimulated T-cells and mainly induces necrosis
- DAI (disease activity index) [2]: 2.4 ± 0.5,

Molecule: COC(=O)C[C@H](NC(=O)[C@H](C)NC(=O)[C@@H](NC(=O)[C@H](Cc1ccc(O)cc1)NC(=O)OCc1ccccc1)C(C)C)C(=O)CF [zYVAD, Z-Tyr-Val-Ala-Asp(Ome)-Ch2F]
- effect on galectin-2 induced T cell apoptosis (PBT [1]): had no effect
- effect on galectin-7 induced cell death (PBT [1]): blocked

Molecule: Z-Ile-Glu-Thr-Asp(OMe)-fluoromethylketone [zIETD]
- effect on galectin-1 induced cell death (PBT [1]): blocked
- effect on galectin-2 induced T cell apoptosis (PBT [1]): had no effect
- effect on galectin-7 induced cell death (PBT [1]): inhibited

Molecule: OC[C@H]1O[C@@](CO)(O[C@H]2O[C@H](CO)[C@@H](O)[C@H](O)[C@H]2O)[C@@H](O)[C@@H]1O [sucrose, reference compound]
- effect on galectin-2 induced apoptosis (PBT [1]): not
- effect on Gal-2 staining intensity of T cells (T cells; not shown): failed to affect the staining intensity

Molecule: O=P1(N(CCCl)CCCl)NCCCO1 (stereo not drawn) [cyclophosphamide]
- effect on galectin-2 induced T cell death (PBT [1]; 0, 10, 1000 nM, data not shown): failed to modulate galectin-2 induced T cell death

Molecule: galectin-7: another homodimeric proto-type galectin used for comparison
- PBT apoptosis relative to galectin-2 (PBT [1]; stimulated T cells): induced PBT apoptosis comparable to galectin-2
- cyclin B1 expression (PBT [3]): 1%
- effect on PBT adhesion to collagen or fibronectin (T cells (PBT, LPT)): failed to significantly alter PBT adhesion to collagen or fibronectin

Molecule: COC(=O)C[C@H](NC(=O)[C@H](C)NC(=O)[C@@H](NC(=O)OCc1ccccc1)C(C)C)C(=O)CF [zVAD, Z-Val-Ala-Asp(OMe)-fluoromethylketone] (Cbz-Val-Ala-Asp(OMe)-CH2F)
- effect on galectin-1 induced cell death (PBT [1]): impair
- effect on galectin-2 induced T cell apoptosis (PBT [1]): significantly inhibited
- effect on galectin-7 induced cell death (PBT [1]): inhibited

Molecule: OC[C@H]1O[C@@H](O[C@H]2[C@H](O)[C@@H](O)C(O)O[C@@H]2CO)[C@H](O)[C@@H](O)[C@H]1O (stereo partly drawn) [lactose, reference compound]
- effect on galectin-2 induced apoptosis (PBT [1]): largely inhibited
- reduction of Gal-2 binding to T cells (T cells; unstimulated T cells): more than 70%

Molecule: COC(=O)CC[C@H](NC(=O)[C@H](CC(C)C)NC(=O)OCc1ccccc1)C(=O)N[C@@H](Cc1cnc[nH]1)C(=O)N[C@@H](CC(=O)OC)C(=O)CF [zLEHD, Z-Leu-Glu(Ome)-His-Asp-(Ome)-Ch2F] (Cbz-LE(OMe)HD(OMe)-CH2F)
- effect on galectin-1 induced cell death (PBT [1]): blocked
- effect on galectin-2 induced T cell apoptosis (PBT [1]): significantly inhibited
- effect on galectin-7 induced cell death (PBT [1]): not

Molecule: COC(=O)CC[C@H](NC(=O)[C@H](CC(=O)OC)NC(=O)OCc1ccccc1)C(=O)N[C@H](C(=O)N[C@@H](CC(=O)OC)C(=O)CF)C(C)C [zDEVD, Z-Asp-Glu-Val-Asp(OMe)-fluoromethylketone]
- effect on galectin-1 induced cell death (PBT [1]): impair
- effect on galectin-2 induced T cell apoptosis (PBT [1]): significantly inhibited
- effect on galectin-7 induced cell death (PBT [1]): inhibited
